pIC50: −log10 of the molar value. Read-outs that look alike come from different tables or passages of the source.
What was measured:
[1] = biological target: ER in MCF-7 cells (Homo sapiens (Human), UniProt P03372); assay: In-cell Western (ICW) ER degradation assay in MCF-7 cells; assay type: cell-based; details: for DC50: MCF-7, ER degradation, read-out: MCF7 DC50; for MCF7 Dmax: MCF-7, maximal ER degradation
[2] = biological target: CRBN/DDB1 (Homo sapiens (Human), UniProt Q96SW2); assay type: binding; details: His tagged CRBN+DDB1, Cy5-labeled Thalidomide probe, one hour; read-out: CRBN HTRF IC50
Experimental: The binding potency was determined using HTRF assay technology (Perkin Elmer). Compounds were serially diluted in DMSO and […] volume was transferred to white 384-well plate.

[3] = biological target: ER in T47D cells (Homo sapiens (Human), UniProt P03372); assay: In-cell Western (ICW) ER degradation assay in T47D cells; assay type: cell-based; details: for DC50: ER degradation
[4] = MCF7, read-out: MCF7 Dmax, MCF-7, maximal ER degradation, 16 hrs treatment
[5] = read-out: T47D Dmax, T47D, maximal ER degradation, 16 hrs treatment
[6] = MCF7, MCF-7, maximal ER degradation, 16 hrs treatment, read-out: MCF7 Dmax
[7] = maximal ER degradation, 16 hrs treatment, read-out: T47D Dmax

CRBN/DDB1, sequence (Q96SW2 whole entry, species assumed): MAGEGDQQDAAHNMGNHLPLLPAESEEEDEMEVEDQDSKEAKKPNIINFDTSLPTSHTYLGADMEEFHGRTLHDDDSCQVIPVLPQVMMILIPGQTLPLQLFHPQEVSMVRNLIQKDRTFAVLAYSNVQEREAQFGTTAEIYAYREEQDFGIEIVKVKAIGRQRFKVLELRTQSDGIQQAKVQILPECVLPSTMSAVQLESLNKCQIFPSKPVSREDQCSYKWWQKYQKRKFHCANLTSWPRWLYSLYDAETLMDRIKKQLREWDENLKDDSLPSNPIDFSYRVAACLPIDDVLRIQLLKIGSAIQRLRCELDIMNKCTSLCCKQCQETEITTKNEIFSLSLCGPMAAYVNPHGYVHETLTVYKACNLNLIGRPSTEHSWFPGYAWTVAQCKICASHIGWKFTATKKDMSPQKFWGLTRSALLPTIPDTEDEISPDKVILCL
CRBN/DDB1, sequence (Q16531 whole entry partner, species assumed): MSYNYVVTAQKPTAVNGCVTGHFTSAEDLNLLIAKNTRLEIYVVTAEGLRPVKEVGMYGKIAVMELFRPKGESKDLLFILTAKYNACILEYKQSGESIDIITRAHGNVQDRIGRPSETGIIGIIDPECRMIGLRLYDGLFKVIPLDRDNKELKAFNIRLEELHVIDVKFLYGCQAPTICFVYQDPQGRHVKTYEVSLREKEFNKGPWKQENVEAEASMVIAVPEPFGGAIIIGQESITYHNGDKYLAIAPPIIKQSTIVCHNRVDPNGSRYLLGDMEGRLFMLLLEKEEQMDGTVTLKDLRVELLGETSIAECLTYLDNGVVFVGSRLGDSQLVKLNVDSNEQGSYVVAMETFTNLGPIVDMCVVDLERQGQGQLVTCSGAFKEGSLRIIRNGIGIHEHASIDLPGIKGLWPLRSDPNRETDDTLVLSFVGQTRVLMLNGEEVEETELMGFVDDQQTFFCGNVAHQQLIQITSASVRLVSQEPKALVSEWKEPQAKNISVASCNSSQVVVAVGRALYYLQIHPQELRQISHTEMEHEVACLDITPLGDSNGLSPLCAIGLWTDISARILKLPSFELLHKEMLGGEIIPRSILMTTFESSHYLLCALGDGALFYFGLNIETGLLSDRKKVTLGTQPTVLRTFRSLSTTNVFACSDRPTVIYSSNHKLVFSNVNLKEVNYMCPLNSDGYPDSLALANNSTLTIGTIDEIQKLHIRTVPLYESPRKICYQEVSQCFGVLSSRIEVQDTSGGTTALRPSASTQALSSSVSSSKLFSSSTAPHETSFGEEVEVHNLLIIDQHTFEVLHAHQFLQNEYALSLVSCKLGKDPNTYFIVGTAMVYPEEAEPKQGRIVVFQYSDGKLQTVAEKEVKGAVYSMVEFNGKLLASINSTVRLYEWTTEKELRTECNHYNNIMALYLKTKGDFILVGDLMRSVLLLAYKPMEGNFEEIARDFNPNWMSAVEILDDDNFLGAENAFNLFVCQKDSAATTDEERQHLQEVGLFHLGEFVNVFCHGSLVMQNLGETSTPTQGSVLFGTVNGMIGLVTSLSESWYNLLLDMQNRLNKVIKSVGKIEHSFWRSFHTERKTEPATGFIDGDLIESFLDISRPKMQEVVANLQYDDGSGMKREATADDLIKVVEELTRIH
ER in T47D cells, sequence (P03372 whole entry): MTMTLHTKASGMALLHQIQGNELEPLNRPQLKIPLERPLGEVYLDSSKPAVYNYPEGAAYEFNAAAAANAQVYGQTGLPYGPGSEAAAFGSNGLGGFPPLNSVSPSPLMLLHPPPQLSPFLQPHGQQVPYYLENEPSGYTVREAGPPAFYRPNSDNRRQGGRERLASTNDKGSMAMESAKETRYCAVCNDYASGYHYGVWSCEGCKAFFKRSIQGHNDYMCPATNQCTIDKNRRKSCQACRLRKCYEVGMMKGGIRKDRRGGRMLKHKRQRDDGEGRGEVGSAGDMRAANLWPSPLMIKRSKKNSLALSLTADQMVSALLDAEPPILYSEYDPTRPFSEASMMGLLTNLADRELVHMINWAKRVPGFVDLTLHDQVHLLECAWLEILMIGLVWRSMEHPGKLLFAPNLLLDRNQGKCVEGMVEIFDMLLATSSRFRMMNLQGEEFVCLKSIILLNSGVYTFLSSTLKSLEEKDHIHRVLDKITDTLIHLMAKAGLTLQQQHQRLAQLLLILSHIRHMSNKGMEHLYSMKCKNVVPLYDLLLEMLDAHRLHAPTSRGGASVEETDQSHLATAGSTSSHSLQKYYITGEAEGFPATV
ER in MCF-7 cells, sequence (P03372 whole entry): as above

O=C1CC[C@@H](Nc2ccc([C@@]34CCN(CC5CCC6(CC5)CN(c5ccc([C@@H]7c8ccc(O)cc8CC[C@@H]7c7ccccc7)cc5)C6)C[C@@H]3C4(F)F)cc2)C(=O)N1 [Compound A64, (R)-3-((4-((1R,6R)-7,7-difluoro-3-((2-(4-((1R,2S)-6-hydroxy-2-phenyl-1,2,3,4-tetra-hydronaphthalen-1-yl)phenyl)-2-azaspiro[3.5]nonan-7-yl)-methyl)-3-azabicyclo[4.1.0]heptan-6-yl)phenyl)amino)-piperidine-2,6-dione]
Dmax [1, 4]: 50 to 75%
DC50 ([1]; 16 hrs treatment): 1 to 10 nM
pIC50 [2]: < 5.30
DC50 ([3]; 16 hrs treatment): 1 to 10 nM
Dmax [3, 5]: 50 to 75%

O=C1CC[C@@H](Nc2ccc([C@@]34CCN(CC5CC6(CCN(c7ccc([C@@H]8c9ccc(O)cc9CC[C@@H]8c8ccccc8)cc7)CC6)C5)C[C@@H]3C4(F)F)cc2)C(=O)N1 [Compound A67, (R)-3-((4-((1R,6R)-7,7-difluoro-3-((7-(4-((1R,2S)-6-hydroxy-2-phenyl-1,2,3,4-tetrahydronaphthalen-1-yl)-phenyl)-7-azaspiro[3.5]nonan-2-yl)methyl)-3-azabicyclo [4.1.0]heptan-6-yl)phenyl)-amino)piperidine-2,6-dione]
Dmax [1, 4]: 50 to 75%
DC50 ([1]; 16 hrs treatment): 1 to 10 nM
pIC50 [2]: < 5.30
DC50 ([3]; 16 hrs treatment): 1 to 10 nM
Dmax [3, 5]: 50 to 75%

COc1cc(N2CCC(CN3CC[C@]4(c5ccc(N[C@@H]6CCC(=O)NC6=O)cc5)[C@H](C3)C4(F)F)CC2)ccc1[C@@H]1c2ccc(O)cc2CC[C@@H]1c1ccccc1 [Compound A89, (R)-3-((4-((1R,6R)-7,7-difluoro-3-((1-(4-((1S,2S)-6-hydroxy-2-phenyl-1,2,3,4-tetra-hydronaphthalen-1-yl)-3-meth-oxyphenyl)piperidin-4-yl)meth-yl)-3-azabicyclo[4.1.0]heptan-6-yl)phenyl)amino)-piperidine-2,6-dione]
Dmax [1, 4]: 25 to 50%
DC50 ([1]; 16 hrs treatment): < 1 nM
pIC50 [2]: < 5.30
DC50 ([3]; 16 hrs treatment): < 1 nM
Dmax [3, 5]: 25 to 50%

COc1cc(N2CCC(CN3CC[C@]4(c5ccc(N[C@H]6CCC(=O)NC6=O)cc5)[C@H](C3)C4(F)F)CC2)ccc1[C@@H]1c2ccc(O)cc2CC[C@@H]1c1ccccc1 [Compound A90, (S)-3-((4-((1R,6R)-7,7-difluoro-3-((1-(4-((1S,2S)-6-hydroxy-2-phenyl-1,2,3,4-tetra-hydronaphthalen-1-yl)-3-meth-oxyphenyl)piperidin-4-yl)meth-yl)-3-azabicyclo[4.1.0]heptan-6-yl)phenyl)amino)piperidine-2,6-dione]
Dmax [1, 4]: 25 to 50%
DC50 ([1]; 16 hrs treatment): < 1 nM
pIC50 [2]: < 5.30
DC50 ([3]; 16 hrs treatment): < 1 nM
Dmax [3, 5]: 25 to 50%

COc1cc(N2CCC(CN3CC[C@@]4(c5ccc(N[C@H]6CCC(=O)NC6=O)cc5)C(C3)C4(F)F)CC2)ccc1[C@@H]1c2ccc(O)cc2CC[C@@H]1c1ccccc1 (stereo partly drawn) [Compound A92, (3S)-3-((4-((1R)-7,7-difluoro-3-((1-(4-((1S,2S)-6-hydroxy-2-phenyl-1,2,3,4-tetrahydronaph-thalen-1-yl)-3-methoxyphenyl)-piperidin-4-yl)methyl)-3-azabi-cyclo[4.1.0]heptan-6-yl)phen-yl)amino)piperidine-2,6-dione]
Dmax [1, 4]: 25 to 50%
DC50 ([1]; 16 hrs treatment): < 1 nM
pIC50 [2]: < 5.30
DC50 ([3]; 16 hrs treatment): 1 to 10 nM
Dmax [3, 5]: 25 to 50%

COc1cc(N2CCC(CN3CCC4(CC3)COc3c4ccc4c3CN([C@H]3CCC(=O)NC3=O)C4=O)CC2)c(F)cc1[C@@H]1c2ccc(O)cc2CC[C@@H]1c1ccccc1 [Compound A93, (S)-3-(1′-((1-(2-fluoro-4-((1S,2S)-6-hydroxy-2-phenyl-1,2,3,4-tetrahydronaphthalen-1-yl)-5-methoxyphenyl)piperidin-4-yl)methyl)-6-oxo-6,8-dihydro-2H,7H-spiro[furo[2,3-e]isoindole-3,4′-piperidin]-7-yl)piperidine-2,6-dione]
Dmax [1, 4]: 50 to 75%
DC50 ([1]; 16 hrs treatment): < 1 nM
pIC50 [2]: > 7.30
DC50 ([3]; 16 hrs treatment): < 1 nM
Dmax [3, 5]: 50 to 75%

COc1cc(N2CCC3(CC2)CC(CN2CCN4c5ccc(C(=O)N[C@H]6CCC(=O)NC6=O)nc5OC[C@@H]4C2)C3)c(F)cc1[C@@H]1c2ccc(O)cc2CC[C@@H]1c1ccccc1 [Compound A104, (S)-N-((S)-2,6-dioxopiperidin-3-yl)-3-((7-(2-fluoro-4-((1S,2S)-6-hydroxy-2-phenyl-1,2,3,4-tetrahydronaphthalen-1-yl)-5-methoxyphenyl)-7-azaspiro[3.5]nonan-2-yl)methyl)-1,2,3,4,4a,5-hexahydropyrazino[1,2-d]pyrido[2,3-b][1,4]oxazine-8-carboxamide]
Dmax [1, 6]: 50 to 75%
DC50 ([1]; 16 hrs treatment): 1 to 10 nM
pIC50 [2]: < 5.30
DC50 ([3]; 16 hrs treatment): < 1 nM
Dmax [3, 7]: > 75%

COc1cc(N2CCC3(CC2)CC(CN2CCN4c5ccc(C(=O)N[C@H]6CCC(=O)NC6=O)nc5OC[C@H]4C2)C3)c(F)cc1[C@@H]1c2ccc(O)cc2CC[C@@H]1c1ccccc1 [Compound A111, (R)-N-((S)-2,6-dioxopiperidin-3-yl)-3-((7-(2-fluoro-4-((1S,2S)-6-hydroxy-2-phenyl-1,2,3,4-tetrahydronaphthalen-1-yl)-5-methoxyphenyl)-7-azaspiro[3.5]nonan-2-yl)methyl)-1,2,3,4,4a,5-hexahydropyrazino[1,2-d]pyrido[2,3-b][1,4]oxazine-8-carboxamide]
Dmax [1, 6]: 50 to 75%
DC50 ([1]; 16 hrs treatment): 1 to 10 nM
pIC50 [2]: < 5.30
DC50 ([3]; 16 hrs treatment): 1 to 10 nM
Dmax [3, 7]: > 75%

O=C1CC[C@H](N2Cc3cc4c(cc3C2=O)OC[C@@H]2CN(CC3CCC5(CC3)CN(c3ccc([C@@H]6c7ccc(O)cc7CC[C@@H]6c6ccccc6)cn3)C5)CCN42)C(=O)N1 [Compound A124, (S)-3-((S)-3-((2-(5-((1S,2S)-6-hydroxy-2-phenyl-1,2,3,4-tetrahydronaphthalen-1-yl)pyridin-2-yl)-2-azaspiro[3.5]nonan-7-yl)methyl)-8-oxo-1,2,3,4,4a,5,8,10-octahydro-9H-pyrazino[1′,2′: 4,5][1,4]oxazino[2,3-f]isoindol-9-yl)piperidine-2,6-dione]
DC50 ([1]; 16 hrs treatment): 10 to 100 nM
MCF7 Dmax ([1]; 16 hrs treatment): B (“B”: >50 and <75%)
pIC50 [2]: 5.30 to 6.30
DC50 ([3]; 16 hrs treatment): 10 to 100 nM
Dmax [3, 7]: 50 to 75%

O=C1CC[C@H](N2Cc3cc4c(cc3C2=O)OCC42CCN(CC3CC4(CCN(c5ccc([C@@H]6c7ccc(O)cc7CC[C@@H]6c6ccccc6)cn5)CC4)C3)CC2)C(=O)N1 [Compound A126, (S)-3-(1′-((7-(5-((1S,2S)-6-hydroxy-2-phenyl-1,2,3,4-tetra-hydronaphthalen-1-yl)pyridin-2-yl)-7-azaspiro[3.5]nonan-2-yl)methyl)-7-oxo-5,7-dihydro-2H,6H-spiro[furo[2,3-f]iso-indole-3,4′-piperidin]-6-yl)-piperidine-2,6-dione]
DC50 ([1]; 16 hrs treatment): < 1 nM
MCF7 Dmax ([1]; 16 hrs treatment): B (“B”: >50 and <75%)
pIC50 [2]: 6.30 to 7.30
DC50 ([3]; 16 hrs treatment): < 1 nM
T47D Dmax ([3]; maximal ER degradation, 16 hrs treatment): A (“A”: >=75%)

O=C1CC[C@H](N2Cc3c(ccc4c3OCC43CCN(CC4CC5(CCN(c6ccc([C@H]7c8ccc(O)cc8CC[C@H]7c7ccccc7)cc6F)CC5)C4)CC3)C2=O)C(=O)N1 [Compound A148, (S)-3-(1′-((7-(2-fluoro-4-((1S,2R)-6-hydroxy-2-phenyl-1,2,3,4-tetrahydronaphthalen-1-yl)phenyl)-7-azaspiro[3.5]nonan-2-yl)methyl)-6-oxo-6,8-dihydro-2H,7H-spiro[furo[2,3-e]isoindole-3,4′-piperidin]-7-yl)piperidine-2,6-dione]
Dmax [1, 4]: 50 to 75%
DC50 ([1]; 16 hrs treatment): < 1 nM
pIC50 [2]: > 7.30
DC50 ([3]; 16 hrs treatment): < 1 nM
Dmax [3, 5]: > 75%
